Data reported in US20250066840A1, “Single-cell RNA sequencing analysis pipeline for predicting cell sensitivities to various drugs” (Regents of the University of Minnesota, priority 2023, published 2025).
Like-named read-outs stand apart in the source and are kept apart here.

Tests used:
PDAC organoids = conditions: Shinkawa T et al, 2022; cited from earlier work
CFPAC1 cells = conditions: Raghavan et al., 2021; cited from earlier work
[1] = test system: docetaxel resistant DU145 cells; test: WST-1 cell viability, docetaxel-resistant DU145 cells; assay type: cell-based; conditions: for IC50: docetaxel resistant DU145 cells, 72-hour drug exposure, WST-1, read-out: mean half maximal inhibitory concentration (IC50)
Experimental: A DU145 prostate cancer cell line was obtained from American Type Culture […] (ATCC) and cultured in RPMI 1640 medium (Thermo Fisher Scientific), supplemented with 10% fetal bovine serum (FBS) (Gibco, Thermo Fisher Scientific) and maintained at 37° C. with 5% CO2. A docetaxel-resistant cell line model for DU145 was established by chronically exposing the parent cell line to stepwise increasing concentrations of docetaxel as previously described(41,42). Both cell lines were periodically monitored for mycoplasma using the Universal Mycoplasma Detection Kit following the manufacturer's protocol (A TCC). In vitro drug screening in both the docetaxei-resistant and control DU145 nodels was performed using either vemurafenib (PLX4032; CAS No. 918504-65-1) or docetaxel (RP-56976; CAS No. 114977-28-5) obtained from MedChem Express (Monmriouth Junction NJ, USA) dissolved in dimethylsulfoxide (DMSO) to obtain stock concentrations of 100 mM for vemurafenib or 5 mM for docetaxel.
(§1) Docetaxel-resistant and control DU145 cells were trypsinized, harvested, counterstained with Hoechst 33342 Fluorescent Stain (Thermo Scientific, Pierce Biotechnology, Rockford, IL) and resuspended in full growth media to 5×10^4 cells per mL prior to plating in 96-well microplates (Thermo Scientific) using a seeding density of 5×10^3 cells per well and allowed to attach for 24 hours. Following incubation, cells were treated with different concentrations of either docetaxel ranging from 0.92 nM to 6 uM, or vemurafenib ranging from 2.5 uM to 50 uM. Cell viability for each well was measured following a 72-hour drug exposure using the WST-1 assay [(Roche Applied. Science, Penzberg, Upper Bavaria, Germany) following the manufacturer's protocol. Absorbance at the 450 nm wavelength was assessed using the Synergy HTX Multi-Mode Plate Reader (BioTek, Winooski, VT)]. Absorbance values for each well were used to calculate percent viability relative to the no drug condition. […]

mesoderm-like cells = conditions: RMS oPDX, Patel et al., 2022; cited from earlier work
[2] = patients, cited from earlier work
[3] = test system: docetaxel sensitive DU145 cells; test: WST-1 cell viability, docetaxel-sensitive (control) DU145 cells; assay type: cell-based; conditions: Homo sapiens, DU-145, 72-hour drug exposure
Experimental: A DU145 prostate cancer cell line was obtained from American Type Culture […] (ATCC) and cultured in RPMI 1640 medium (Thermo Fisher Scientific), supplemented with 10% fetal bovine serum (FBS) (Gibco, Thermo Fisher Scientific) and maintained at 37° C. with 5% CO2. A docetaxel-resistant cell line model for DU145 was established by chronically exposing the parent cell line to stepwise increasing concentrations of docetaxel as previously described(41,42). Both cell lines were periodically monitored for mycoplasma using the Universal Mycoplasma Detection Kit following the manufacturer's protocol (A TCC). […]
as §1, with “Following incubation, cells were treated with different concentrations of either docetaxel ranging from 0.92 nM to 6 uM, or vemurafenib ranging from 2.5 uM to 50 uM.” left out, “VT)].” for “VT)]. Absorbance values for each well were used to calculate percent viability relative to the no drug condition.”

For `Nc1ccn([C@@H]2O[C@H](CO)[C@@H](O)C2(F)F)c(=O)n1` [Gemcitabine], the “response of basal-like vs classical-like PDAC organoids” value (PDAC organoids) is given as “higher resistance”.

For `CC(=O)O[C@H]1C(=O)[C@@]2(C)[C@H]([C@H](OC(=O)c3ccccc3)[C@]3(O)C[C@H](OC(=O)[C@H](O)[C@@H](NC(=O)c4ccccc4)c4ccccc4)C(C)=C1C3(C)C)[C@]1(OC(C)=O)CO[C@@H]1C[C@@H]2O` [Paclitaxel], the “response of CFPAC1 cells grown in complete classical organoid media” value (CFPAC1 cells) is listed as “responsive”.

For `CCc1c2c(nc3ccc(O)cc13)-c1cc3c(c(=O)n1C2)COC(=O)[C@]3(O)CC` [SN-38], the “response of CFPAC1 cells grown in complete classical organoid media” value (CFPAC1 cells) is listed as “responsive”.

For `CC(=O)O[C@@]12CO[C@@H]1C[C@H](O)[C@@]1(C)C(=O)[C@H](O)C3=C(C)[C@@H](OC(=O)[C@H](O)[C@@H](NC(=O)OC(C)(C)C)c4ccccc4)C[C@@](O)([C@@H](OC(=O)c4ccccc4)[C@H]21)C3(C)C` [docetaxel], the “percent viability, resistant vs sensitive DU145 cells” value ([1]; docetaxel exposure, FIG. 9, two-way ANOVA) was “higher resistance”.

In the case of `CCc1c2c(nc3ccc(OC(=O)N4CCC(N5CCCCC5)CC4)cc13)-c1cc3c(c(=O)n1C2)COC(=O)[C@]3(O)CC` [irinotecan], the “response of mesoderm-like cells compared to myoblast cells” value (mesoderm-like cells) is listed as “highly resistant”.

For `CCCS(=O)(=O)Nc1ccc(F)c(C(=O)c2c[nH]c3ncc(-c4ccc(Cl)cc4)cc23)c1F` [vemurafenib], the “average maximum serum concentration (Cmax)” value ([2]; previous trial (Zhang W et al., 2017)) is given as 61.4 µg/mL, the “average maximum serum concentration (Cmax)” value ([2]; previous trial, equivalent of 61.4 μg/mL) is given as 125.3 μM/L and the “tolerability at Cmax” value ([2]; previous trial) is given as “well tolerated”. The IC50 ([1]; Homo sapiens, DU-145, 72 h) was 12.8 µM, the IC50 [1] was 12.9 µM and the IC50 [3] was 27.9 µM.
